Test results reported in PMC4774911, “Biochemical Screening of Five Protein Kinases from Plasmodium falciparum against 14,000 Cell-Active Compounds” (PLoS ONE, 2016).
Several values for one entry are separate records, joined by “and”; a condition that tells them apart may be missing. Equal values may be shown once.

How the values were obtained:
Assay in all cases: biochemical
Parameters in all cases: endogenous in cells; host or cells: K562 cell extract; species or system K562 (extract); replicate k of n = 2 (each experiment ID is one independent experiment; two experiment IDs per compound)
Conditions in all cases: read-out: KDapp
MAPKAPK5 = biological target: T1, MAPKAPK5 (Homo sapiens, UniProt Q8IW41)
T1 sequence (Q8IW41 1-473): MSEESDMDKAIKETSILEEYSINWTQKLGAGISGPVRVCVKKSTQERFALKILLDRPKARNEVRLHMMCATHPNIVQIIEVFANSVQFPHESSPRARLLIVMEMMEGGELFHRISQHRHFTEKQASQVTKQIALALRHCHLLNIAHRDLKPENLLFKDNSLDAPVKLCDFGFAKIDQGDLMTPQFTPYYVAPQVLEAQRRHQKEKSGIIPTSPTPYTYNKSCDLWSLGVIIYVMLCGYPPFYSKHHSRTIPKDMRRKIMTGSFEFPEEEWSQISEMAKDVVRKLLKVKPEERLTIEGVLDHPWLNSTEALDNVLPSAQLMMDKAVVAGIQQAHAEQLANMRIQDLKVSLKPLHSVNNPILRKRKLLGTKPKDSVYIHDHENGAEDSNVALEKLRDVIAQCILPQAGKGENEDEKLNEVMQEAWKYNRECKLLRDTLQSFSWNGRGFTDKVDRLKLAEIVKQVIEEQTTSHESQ

MARK4 = biological target: T2, MARK4 (Homo sapiens, UniProt Q96L34)
T2 sequence (Q96L34 1-752): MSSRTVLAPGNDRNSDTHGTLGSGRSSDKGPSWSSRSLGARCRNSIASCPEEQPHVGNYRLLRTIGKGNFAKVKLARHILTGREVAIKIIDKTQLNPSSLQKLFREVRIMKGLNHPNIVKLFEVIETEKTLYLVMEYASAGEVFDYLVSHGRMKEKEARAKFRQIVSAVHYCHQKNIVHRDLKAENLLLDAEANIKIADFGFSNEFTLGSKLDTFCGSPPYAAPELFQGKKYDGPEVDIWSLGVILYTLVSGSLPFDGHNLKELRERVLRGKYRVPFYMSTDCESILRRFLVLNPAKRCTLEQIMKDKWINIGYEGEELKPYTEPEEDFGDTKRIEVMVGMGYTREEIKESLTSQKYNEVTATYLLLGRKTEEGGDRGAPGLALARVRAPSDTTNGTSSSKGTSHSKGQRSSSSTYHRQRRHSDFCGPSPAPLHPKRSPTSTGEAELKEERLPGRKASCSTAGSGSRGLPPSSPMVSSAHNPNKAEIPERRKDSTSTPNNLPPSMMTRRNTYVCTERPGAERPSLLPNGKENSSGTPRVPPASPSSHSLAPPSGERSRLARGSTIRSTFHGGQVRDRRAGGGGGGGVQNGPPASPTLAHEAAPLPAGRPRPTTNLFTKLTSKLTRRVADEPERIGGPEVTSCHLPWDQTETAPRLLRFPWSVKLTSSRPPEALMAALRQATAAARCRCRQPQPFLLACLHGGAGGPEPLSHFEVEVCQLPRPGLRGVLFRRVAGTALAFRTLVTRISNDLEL

BMX = BMX (Homo sapiens, UniProt P51813)
CDK6 = CDK6 (Homo sapiens, UniProt Q00534)
RPS6KA5 = RPS6KA5 (Homo sapiens, UniProt O75582)
PLK4 = biological target: T3, PLK4 (Homo sapiens, UniProt O00444)
T3 sequence (O00444 1-970): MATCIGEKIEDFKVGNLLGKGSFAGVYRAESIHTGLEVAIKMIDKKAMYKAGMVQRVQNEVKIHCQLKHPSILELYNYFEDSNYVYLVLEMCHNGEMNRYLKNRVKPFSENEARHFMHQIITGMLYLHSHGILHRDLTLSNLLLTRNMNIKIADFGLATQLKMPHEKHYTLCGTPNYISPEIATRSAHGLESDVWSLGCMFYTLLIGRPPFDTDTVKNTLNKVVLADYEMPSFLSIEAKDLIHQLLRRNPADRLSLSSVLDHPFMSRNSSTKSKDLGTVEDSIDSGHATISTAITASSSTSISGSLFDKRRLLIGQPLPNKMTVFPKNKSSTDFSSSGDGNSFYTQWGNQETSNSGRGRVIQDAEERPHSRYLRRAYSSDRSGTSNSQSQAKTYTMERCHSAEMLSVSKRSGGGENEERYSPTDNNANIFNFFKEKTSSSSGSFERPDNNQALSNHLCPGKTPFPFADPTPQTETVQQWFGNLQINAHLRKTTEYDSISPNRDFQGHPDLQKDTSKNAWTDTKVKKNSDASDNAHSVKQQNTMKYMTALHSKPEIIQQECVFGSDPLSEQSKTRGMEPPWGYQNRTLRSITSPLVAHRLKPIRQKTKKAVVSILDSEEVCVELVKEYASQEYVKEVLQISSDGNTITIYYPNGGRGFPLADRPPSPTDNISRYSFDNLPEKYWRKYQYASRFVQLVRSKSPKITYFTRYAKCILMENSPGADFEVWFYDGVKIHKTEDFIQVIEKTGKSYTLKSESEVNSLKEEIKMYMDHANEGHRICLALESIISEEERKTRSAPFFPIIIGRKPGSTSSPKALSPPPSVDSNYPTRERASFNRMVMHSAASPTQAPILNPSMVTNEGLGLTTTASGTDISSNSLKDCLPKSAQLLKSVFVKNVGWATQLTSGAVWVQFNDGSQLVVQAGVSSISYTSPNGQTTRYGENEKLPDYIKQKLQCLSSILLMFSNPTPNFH

Sequence of CDK6 (Q00534 whole entry): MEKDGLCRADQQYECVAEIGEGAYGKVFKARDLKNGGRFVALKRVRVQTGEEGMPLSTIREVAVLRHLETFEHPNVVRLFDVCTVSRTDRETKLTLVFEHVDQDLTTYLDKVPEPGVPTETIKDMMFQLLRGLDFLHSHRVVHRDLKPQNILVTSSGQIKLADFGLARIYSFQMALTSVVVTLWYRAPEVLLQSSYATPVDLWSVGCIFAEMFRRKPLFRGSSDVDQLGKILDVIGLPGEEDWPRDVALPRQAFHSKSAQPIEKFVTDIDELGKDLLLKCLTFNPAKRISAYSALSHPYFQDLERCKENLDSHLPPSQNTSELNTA
Sequence of RPS6KA5 (O75582 whole entry): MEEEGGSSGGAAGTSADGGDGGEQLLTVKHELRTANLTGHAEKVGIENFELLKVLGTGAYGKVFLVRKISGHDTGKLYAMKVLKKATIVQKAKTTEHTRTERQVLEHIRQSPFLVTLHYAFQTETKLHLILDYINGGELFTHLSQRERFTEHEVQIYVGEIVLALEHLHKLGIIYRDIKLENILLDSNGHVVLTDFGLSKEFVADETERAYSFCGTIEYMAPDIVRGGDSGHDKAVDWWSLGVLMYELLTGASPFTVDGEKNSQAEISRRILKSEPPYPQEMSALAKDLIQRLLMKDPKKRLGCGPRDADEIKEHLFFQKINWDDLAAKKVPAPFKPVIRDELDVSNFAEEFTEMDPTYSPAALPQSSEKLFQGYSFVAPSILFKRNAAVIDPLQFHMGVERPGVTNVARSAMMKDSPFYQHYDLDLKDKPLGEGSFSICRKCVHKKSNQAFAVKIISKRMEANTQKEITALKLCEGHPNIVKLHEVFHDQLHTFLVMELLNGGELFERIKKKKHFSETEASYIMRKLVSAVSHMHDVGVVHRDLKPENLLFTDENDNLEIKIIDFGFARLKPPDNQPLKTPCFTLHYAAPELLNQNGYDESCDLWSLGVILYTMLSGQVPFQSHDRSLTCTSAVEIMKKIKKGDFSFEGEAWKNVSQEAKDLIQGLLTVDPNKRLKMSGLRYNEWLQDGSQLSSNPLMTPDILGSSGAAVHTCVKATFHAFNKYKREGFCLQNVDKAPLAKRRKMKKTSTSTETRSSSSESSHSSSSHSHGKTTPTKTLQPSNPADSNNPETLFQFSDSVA
Sequence of BMX (P51813 whole entry): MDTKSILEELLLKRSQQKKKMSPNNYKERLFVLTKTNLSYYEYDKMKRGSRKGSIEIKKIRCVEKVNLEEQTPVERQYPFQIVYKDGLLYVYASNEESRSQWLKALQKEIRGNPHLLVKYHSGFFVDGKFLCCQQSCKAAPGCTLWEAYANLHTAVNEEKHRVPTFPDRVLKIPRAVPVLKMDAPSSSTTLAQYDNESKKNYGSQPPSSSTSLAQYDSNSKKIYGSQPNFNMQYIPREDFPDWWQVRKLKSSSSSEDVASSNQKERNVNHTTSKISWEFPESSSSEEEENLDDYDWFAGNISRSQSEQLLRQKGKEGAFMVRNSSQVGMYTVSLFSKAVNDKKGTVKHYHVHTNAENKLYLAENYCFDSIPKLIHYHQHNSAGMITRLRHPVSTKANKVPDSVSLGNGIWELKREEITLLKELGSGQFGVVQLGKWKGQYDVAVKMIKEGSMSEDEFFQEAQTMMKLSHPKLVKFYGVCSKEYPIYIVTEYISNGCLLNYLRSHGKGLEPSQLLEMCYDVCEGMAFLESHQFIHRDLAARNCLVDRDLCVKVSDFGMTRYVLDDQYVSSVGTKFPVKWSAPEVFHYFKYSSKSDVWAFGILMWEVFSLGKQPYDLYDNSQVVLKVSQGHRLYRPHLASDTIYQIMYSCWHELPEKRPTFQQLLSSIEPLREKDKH

SMILES | Kd (MAPKAPK5) | Kd (MARK4) | Kd (BMX) | Kd (CDK6) | Kd (RPS6KA5) | Kd (PLK4)
CN(C)CC(O)COc1ccc(Nc2ncc([N+](=O)[O-])c(Nc3ccccc3O)n2)cc1.O=C(O)C(F)(F)F (stereo not drawn) [TCMDC-141399] | 292 nM | 6160 nM and 3900 nM |  |  |  | 
CN1CCN(c2ccc(Nc3ncc(C#N)c(Nc4ccccc4C(N)=O)n3)cc2)CC1.Cl [TCMDC-134116] |  |  | 285 nM | 133 nM and 150 nM | 393 nM and 590 nM | 53.9 nM and 69.2 nM
